Results from patent publication US20030171379A1, “Methods of treating, preventing, or inhibiting inflammation with Mactanamide compounds” (priority 2001, published 2003).

Tests used:
[1] = tested on: PMA-induced inflammation (edema) of the mouse ear; experiment: Inhibition of mouse ear edema (PMA mouse ear model); type: in vivo; conditions: topical in acetone, 25 ug/ear Mactanamide with 2 ug/ear PMA, 3 hours 20 minutes, left ear weight minus right ear (acetone) weight
Protocol: The efficacy of Mactanamide compounds as an anti-inflammatory agent was established by the following assay. Mactanamide was topically applied in acetone to the inside pinnae of the ears of mice in a solution comprising an edema-causing irritant, phorbol 12-myristate 13-acetate (PMA). Specifically, 2 μg/ear of PMA alone or in combination with 25 μg/ear of Mactanamide was applied to the left ears (5 mice per treatment group) and acetone was applied to all right ears. After 3 hours, 20 minutes incubation, the mice were sacrificed, the ears removed and bores taken and weighed. Edema was measured by subtracting the weight of the right ear (acetone control) from the weight of the left ear (treated). Results were recorded as % decrease (inhibition) or % increase (potentiation) in edema relative to the PMA control group edema.

[2] = tested on: RTX-induced inflammation (edema) of the mouse ear; experiment: Resiniferatoxin (RTX) assay, mouse ear edema; type: in vivo; conditions: topical in acetone, 50 ug/ear Mactanamide with 0.1 ug RTX per ear, 30 minutes, left ear weight minus right ear (acetone) weight
Protocol: A control, acetone, was applied to all right ears. After a 30 minute incubation, the mice were sacrificed, the ears removed, and bores taken and weighed.
Edema was measured by subtracting the weight of the right ear (control) from the weight of the left ear. The results were recorded as % decrease (inhibition) or % increase (potentiation) in edema relative to the control group edema.

Compound: CN1C(=O)C(Cc2c(O)cccc2O)NC(=O)C1Cc1ccccc1 (centres unmarked) [Mactanamide]
- Edema (mg ± SEM) [1]: 2.6 ± 1.1 mg
- Edema (mg ± SEM) [2]: 0.9 ± 0.5 mg
